The target in this assay is T1, STK25 (YSK1) (Homo sapiens, UniProt O00506).
T1 construct: purchased Thermo Fisher Scientific (Life Technologies) SelectScreen
Briefly: SelectScreen Z'LYTE. Type of assay: biochemical. Put shortly:
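Percent values come from Thermo SelectScreen profiling of NU5455, combining activity and binding assays. CSF1R was run in Z'LYTE format at Km app ATP, and CAMK1 in Adapta format with ATP listed at 10.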

T1 sequence (O00506 whole entry): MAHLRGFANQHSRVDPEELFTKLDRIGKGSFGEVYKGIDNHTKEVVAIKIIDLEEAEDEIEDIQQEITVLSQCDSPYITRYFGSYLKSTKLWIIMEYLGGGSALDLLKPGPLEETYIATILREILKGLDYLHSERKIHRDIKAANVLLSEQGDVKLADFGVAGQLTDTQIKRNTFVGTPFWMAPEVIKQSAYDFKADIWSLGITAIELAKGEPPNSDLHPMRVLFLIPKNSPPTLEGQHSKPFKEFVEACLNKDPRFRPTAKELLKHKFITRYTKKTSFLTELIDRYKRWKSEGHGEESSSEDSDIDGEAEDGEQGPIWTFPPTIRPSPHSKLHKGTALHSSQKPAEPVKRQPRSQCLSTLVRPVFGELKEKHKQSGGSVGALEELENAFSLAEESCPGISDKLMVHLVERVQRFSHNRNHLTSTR

A word on the inhibition: it is the relative decrease from the control value, in per cent. Turning to `CN(C(=O)CN1CCOCC1)c1ccc2sc3c(-c4cccc5c(=O)cc(N6CC7CCC(C6)O7)oc45)cccc3c2c1` [NU5455], the inhibition at 1 µM was -11.4%.

(Values after publication PMC6934184, “Selective DNA-PKcs inhibition extends the therapeutic index of localized radiotherapy and chemotherapy” (The Journal of Clinical Investigation, 2019).)
